Assay results taken from EP0359505A1, “Dopamine-beta hydroxylase inhibitors” (SMITHKLINE BEECHAM CORPORATION, priority 1988, dated 1990).

Columns and labels:
[1] = system: spontaneously hypertensive rats; assay: mean arterial blood pressure in spontaneously hypertensive rats, indwelling cannulae in the tail arteries; type: in vivo; conditions: 100 mg/kg orally
Method: Further, spontaneously hypertensive rats were treated with 3-mercapto-4-benzyl-5-(4-pyridyl)-1,2,4-triazole at a dose of 100 mg/kg orally and mean arterial blood pressure was monitored for 250 minutes using indwelling cannulae in the tail arteries. […] The maximal blood pressure reduction was approximately 25 mmHg.

DBH = molecular target: T1, DBH (Homo sapiens, UniProt P09172); conditions: as reported by Runti et al.; cited from earlier work
T1 sequence (P09172 1-617): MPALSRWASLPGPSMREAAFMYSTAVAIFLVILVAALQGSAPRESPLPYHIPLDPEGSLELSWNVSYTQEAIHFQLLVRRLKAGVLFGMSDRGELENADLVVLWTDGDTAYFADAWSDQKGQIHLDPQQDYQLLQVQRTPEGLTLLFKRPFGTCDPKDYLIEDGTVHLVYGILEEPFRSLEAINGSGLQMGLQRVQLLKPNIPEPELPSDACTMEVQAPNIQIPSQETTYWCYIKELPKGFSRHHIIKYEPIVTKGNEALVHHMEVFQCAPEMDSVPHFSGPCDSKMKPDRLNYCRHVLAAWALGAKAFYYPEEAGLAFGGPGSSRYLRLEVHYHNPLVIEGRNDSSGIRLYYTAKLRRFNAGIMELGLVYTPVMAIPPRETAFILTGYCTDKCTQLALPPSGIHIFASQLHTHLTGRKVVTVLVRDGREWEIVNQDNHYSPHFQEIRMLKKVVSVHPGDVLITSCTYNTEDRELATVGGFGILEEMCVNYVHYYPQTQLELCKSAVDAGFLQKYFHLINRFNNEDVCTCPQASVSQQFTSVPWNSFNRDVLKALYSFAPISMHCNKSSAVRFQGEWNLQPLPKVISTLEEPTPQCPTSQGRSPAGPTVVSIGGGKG

[2] = see Teresawa et al.; cited from earlier work

Molecule: Sc1nnc(-c2ccncc2)n1Cc1ccccc1 [3-Mercapto-4-benzyl-5-(4-pyridyl)-1,2,4-triazole]
- blood pressure compared to vehicle-treated controls ([1]; between 80 and 240 minutes following treatment): significant blood pressure reductions
- maximal blood pressure reduction ([1]; mean arterial blood pressure monitored for 250 minutes, compared to vehicle-treated controls): approximately 25 mmHg

Molecule: phenylpicolinic acid
- inhibitory activity relative to fusaric acid (DBH): twice the inhibitory activity of fusaric acid

Molecule: CCCCc1ccc(C(=O)O)nc1 [Fusaric acid]
- toxic effects [2]: hepatotoxic
